From patent US20110263527A1, “Sulfated Galactans With Antithrombotic Activity, Pharmaceutical Composition, Method for Treating or Prophylaxis of Arterial or Venous Thrombosis, Method of Extraction and Use Thereof” (priority 2008, published 2011)

Experiments:
[1] = biological target: T1, factor Xa (antithrombin-mediated inactivation) (Homo sapiens, UniProt P00742+P01008); assay: Factor Xa inhibition by antithrombin in the presence of sulfated polysaccharides; assay type: biochemical; conditions: antithrombin 10 nM, factor Xa 2 nM, FIG. 2B
T1 construct: thrombin or factor Xa 2 nM (Haematologic Technologies Inc., Vermont, USA); purchased Haematologic Technologies Inc., Vermont, USA
Protocol: (§1) Antithrombin (10 nM) or of heparin cofactor II (15 nM) were incubated with thrombin (2 nM) or factor Xa (2 nM) in the presence of various concentrations of non-fractionated heparin (□), low molecular weight heparin (▪), native sulfated galactans (▴), ˜14 kDa fragment (◯) and a ˜5 kDa fragment ([…]). After 60 seconds, the amidolytic thrombin activity and factor Xa were determined with a chromogenic substrate specific for each protease ([…]) [mean±standard error of the mean (SEM), n=3]. No inhibition was observed when thrombin or factor Xa was incubated with sulfated polysaccharide alone over the same range of tested concentrations.
(§2) g) Thrombin Inhibition or Factor Xa by Antithrombin and Heparin Cofactor II in the Presence of Sulfated Polysaccharides
(§3) The incubations were performed on plates of 96 wells. […] After 60 seconds at 37° C., were added 25 μL chromogenic substrate (S-2238 for thrombin or S-2222 for factor Xa) (Chromogenix AB, Mondal, Sweden), and was recorded absorbance at 405 nm for 120 seconds. The rate of absorbance change was proportional to the activity of thrombin or factor Xa remaining in the incubation. […]

bleeding = test system: bleeding; design: species or system Wistar rats; conditions: rat, in vivo
Protocol: FIG. 6 refers to the effect on bleeding. Non-fractionated heparin (□), low molecular weight heparin (▪), native sulfated galactans (▴), and ˜5 kDa fragment ([…]) were infused into rats. After 5 minutes, the rats' tails were cut 3 mm from the tip and immersed in 40 mL of distilled water at room temperature. The loss of blood was determined after 60 minutes through the measure of hemoglobin in water. The results were expressed in μL of loss blood (mean±standard error of the mean (SEM), n=4). For clarity purposes only one SEM bar is shown for each point.
Wistar rats (both sexes, body weight ˜250 g) were anesthetized with a mixture of ketamine and xylazine, as previously described. The right carotid artery was cannulated and different polysaccharides doses were infused and allowed to circulate for 5 minutes. The rats tail was cut 3 mm from the tip and immersed in 40 mL of distilled water at room temperature. After 60 minutes, blood loss was determined by measuring the hemoglobin in water by using a spectrophotometric method (Zancan P, Mourão P A S. Venous and arterial thrombosis in rat models: dissociation of the antithrombotic effects of giycosaminoglycans. Blood Coagul Fibrin 2004; 15: 45-54). The blood volume was drawn from a standard curve based on absorbance at 540 nm.

venous thrombosis = assay: Venous thrombosis model (vena cava, thromboplastin and stasis); assay type: in vivo, Wistar rats; conditions: 1.00 mg/kg; FIGS. 3A and 3B
Protocol: Assays were performed in rats with different doses of non-fractionated heparin (□), low molecular weight heparin (▪), native sulfated galactans (▴), ˜14 kDa fragment (◯) and a ˜5 kDa fragment ([…]) (mean±standard error of the mean (SEM), n=3). Thrombosis induced model (A and B) in the rats' vena cava. The mean weight of the thrombus for each dose was expressed as a percentage of weight in the absence of polysaccharide, (C) Thrombosis in the arteriovenous shunt model. The mean weight of the thrombus for each dose was expressed as a percentage of the weight of thrombus in the absence of polysaccharide, (D) laser irradiation induced arterial thrombosis model in the carotid artery. Results were expressed as the mean time to complete occlusion of the artery.
The antithrombotic activity in rats was investigated using rabbit brain thromboplastin with thrombogenic stimulus. We followed the guidelines for institutional animal care and experimentation. Wistar rats (both sexes, body weight of ˜250 g) were anesthetized with a mixture of ketamine and xylazine, as already described. […] A 0.7 cm segment was prepared starting just below the branching of the right renal vein and extending until after the left renal vein which was linked. Different doses of sulfated polysaccharides were intravenously administered 1 cm below the distal lost suture and moved left for 5 minutes. […]

[2] = International Standard (85/600); cited from earlier work
[3] = biological target: T2, thrombin (heparin cofactor II-mediated inactivation) (Homo sapiens, UniProt P00734+P05546); assay: Thrombin inhibition by heparin cofactor II in the presence of sulfated polysaccharides; assay type: biochemical; conditions: heparin cofactor II 15 nM, thrombin 2 nM, FIG. 2C
T2 construct: purchased Haematologic Technologies Inc., Vermont, USA
Protocol: as §1, §2, §3

[4] = biological target: T3, thrombin (antithrombin-mediated inactivation) (Homo sapiens, UniProt P00734+P01008); assay: Thrombin inhibition by antithrombin in the presence of sulfated polysaccharides; assay type: biochemical; conditions: antithrombin 10 nM, thrombin 2 nM, FIG. 2A
T3 construct: purchased Haematologic Technologies Inc., Vermont, USA
Protocol: as §1, §2, §3

factor XII = biological target: T4, factor XII (Homo sapiens, UniProt P00748); assay: Activation of factor XII in human plasma in the presence of sulfated polysaccharides; assay type: biochemical; conditions: chromogenic substrate S-2302, FIG. 4
T4 construct: from tissue; host or cells: citrated human plasma
T4 sequence (P00748 20-615): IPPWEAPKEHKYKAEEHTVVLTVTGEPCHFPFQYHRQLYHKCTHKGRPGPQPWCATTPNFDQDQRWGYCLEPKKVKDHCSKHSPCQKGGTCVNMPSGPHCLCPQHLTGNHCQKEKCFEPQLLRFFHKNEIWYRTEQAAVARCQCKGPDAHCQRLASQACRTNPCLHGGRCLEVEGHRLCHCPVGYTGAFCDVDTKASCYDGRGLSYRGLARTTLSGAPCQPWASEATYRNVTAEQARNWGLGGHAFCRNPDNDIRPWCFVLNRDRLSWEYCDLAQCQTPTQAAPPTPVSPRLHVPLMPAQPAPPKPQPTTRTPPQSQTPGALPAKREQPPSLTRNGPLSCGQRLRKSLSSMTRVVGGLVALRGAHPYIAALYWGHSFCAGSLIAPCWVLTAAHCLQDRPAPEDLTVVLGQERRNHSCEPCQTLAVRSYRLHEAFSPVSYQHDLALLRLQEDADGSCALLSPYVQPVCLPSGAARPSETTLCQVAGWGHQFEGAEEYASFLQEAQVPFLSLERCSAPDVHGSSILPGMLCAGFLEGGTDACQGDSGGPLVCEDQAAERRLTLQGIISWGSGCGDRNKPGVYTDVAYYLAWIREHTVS
Protocol: FIG. 4 refers to the factor XII activation in human plasma incubated with non-fractionated heparin (□), native sulfated galactans (▴), ˜14 kDa fragment (◯) and a ˜5 kDa fragment ([…]). After 60 seconds of incubation at 37° C., 0.3 mM of chromogenic substrate for plasma calicrein was added. The increase in absorbance at 405 nm was expressed in milli OD/min (mean±standard error of the mean (SEM), n=3).
h) Activation of Factor XII in the Presence of Sulfated Polysaccharides
The assays for activation of factor XII were performed on plates of 96 wells. Citrated human plasma was diluted with 3 volumes of TS buffer and samples (40 μL) were incubated with different concentrations of sulfated polysaccharides (30 μL). After incubation at 37° C. for 60 seconds, were added 30 μL of chromogenic substrate (S-2302, 0.3 mM) (Chromogenix AB, Mondal, Sweden) and absorbance at 405 nm for 300 seconds was recorded. S-2302 is a chromogenic substrate for plasma calicrein activated by its precalicrein precursor through the action of activated factor XII. The method for determining the activity of factor XIIa is based on difference in absorbance between formed p-nitroanilide and original substrate. The formation rate of p-nitroanilide, i.e., the increase in absorbance at 405 nm, is proportional to enzyme activity. No activation occurred in control experiments in the absence of sulfated polysaccharide.

T1 sequence (P00742 41-179 limits assumed): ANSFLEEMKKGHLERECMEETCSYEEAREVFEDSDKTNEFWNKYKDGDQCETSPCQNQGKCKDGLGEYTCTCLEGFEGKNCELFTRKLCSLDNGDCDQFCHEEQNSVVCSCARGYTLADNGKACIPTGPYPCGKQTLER
T1 sequence (P00742 235-488 limits assumed): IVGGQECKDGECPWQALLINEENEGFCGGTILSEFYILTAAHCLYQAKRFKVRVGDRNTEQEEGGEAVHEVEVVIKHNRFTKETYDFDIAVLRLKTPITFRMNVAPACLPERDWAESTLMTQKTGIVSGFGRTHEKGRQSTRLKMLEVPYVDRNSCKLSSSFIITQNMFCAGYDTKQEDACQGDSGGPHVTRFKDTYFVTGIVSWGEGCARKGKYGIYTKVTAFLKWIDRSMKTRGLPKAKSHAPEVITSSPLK
T1 sequence (P01008 33-464): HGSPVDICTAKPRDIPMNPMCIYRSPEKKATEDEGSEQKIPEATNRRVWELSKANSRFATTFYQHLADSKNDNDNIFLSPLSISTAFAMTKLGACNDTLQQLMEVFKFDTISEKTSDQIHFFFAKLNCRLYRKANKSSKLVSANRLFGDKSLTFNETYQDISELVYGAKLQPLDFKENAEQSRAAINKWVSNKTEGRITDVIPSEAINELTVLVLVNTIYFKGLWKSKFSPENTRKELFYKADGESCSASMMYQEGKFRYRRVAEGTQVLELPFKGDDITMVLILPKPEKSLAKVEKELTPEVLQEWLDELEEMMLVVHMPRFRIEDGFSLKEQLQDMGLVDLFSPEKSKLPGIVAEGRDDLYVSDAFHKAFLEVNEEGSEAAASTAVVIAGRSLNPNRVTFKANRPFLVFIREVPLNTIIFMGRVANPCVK

Substance | inactivation of factor Xa by antithrombin [1] | effect on bleeding (hemorrhagic effect, bleeding time) (bleeding) | antithrombotic activity (venous thrombosis) | activity of the standard [2] [IU/mg] | inactivation of thrombin by heparin cofactor II [3] | inactivation of thrombin by antithrombin [4] | factor XII activation (factor XII)
low molecular weight heparin | more active than ˜5 kDa fragment | had no effect | approximately 70% | 66 | more active than ˜5 kDa fragment | more active than ˜5 kDa fragment | 
dextran sulfate |  |  |  |  |  |  | activates factor XII
